For 26 compounds, IC50 and inhibition results are on record in patent publication US20120157471A1, “BENZIMIDAZOLE DERIVATIVES” (PFIZER INC., priority 2009, published 2012).

Test [1] concerns Gli-Luc/MEF cells (Smo). The experiment in a line: Gli-Luc/MEF assay (Shh-stimulated luciferase reporter under the Gli response element). The format is cell-based, mouse. The conditions noted are these: Mus musculus, MEF, 48 h. How it is done:
The Gli-Luc/MEF cells obtained from Gli-Luc transgenic mice (Pfizer CoE, Genetically Modified Mice) contain a luciferase reporter gene under the control of the Gli response element. Luciferase activity stimulated with Sonic hedgehog ligand was inhibited by Smo inhibitors, and IC50 was subsequently calculated.
Plates were incubated at 37° C. and 5% CO2 overnight. On day two, cells were dosed with test compounds at a final concentration ranging from […] to 50 μM at a 3-time series dilution. Immediately after dosing cells with compounds, recombinant mouse sonic hedgehog (Shh, R&D Systems 464-SH) was added to a final concentration of 2 μg/mL. The cells were incubated with compounds and Shh for 48 hours at 37° C. and 5% CO2. Luciferase assays were conducted on Day 4 using the Bright-Glo Luciferase assay system (Promega E2620) according to Promega's protocol. Briefly, Bright-Glo luciferase reagent was made up and 25 uL were added to each well of the 384-well plate containing media. Plates were kept at room temperature for 5 minutes, and then read on an Envision Luminescence plate reader (Perkin-Elmer). IC50 of the inhibition was calculated by using GraphPad Prism.

Test [2] concerns the target T1, human Smo (amino acids 181-787) (Homo sapiens, UniProt Q99835).
T1 construct: expressed in transfected cells; membrane preparation
The experiment in a line: Smo radioligand competition binding assay (displacement of 3H-PF-03451358 from HEK293 membranes). The conditions noted are these: for inhibition at 0.05 µM: 0.05 μM test compound, displacement of 3H-PF-03451358, read-out: SMO % inh. @ 0.05 μM; for IC50: radioligand competition binding. In short, it runs like this:
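Displacement of 3 nM tritiated PF-03451358 measured by filtration and scintillation counting after 2 h at room temperature, using 40 μg/well HEK293 membranes bearing cell-surface Smo 181-787, pH 7.5 buffer. Specific binding defined against 30 μM unlabelled ligand; IC50 via variable-slope sigmoidal fit.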

T1 sequence (Q99835 181-787): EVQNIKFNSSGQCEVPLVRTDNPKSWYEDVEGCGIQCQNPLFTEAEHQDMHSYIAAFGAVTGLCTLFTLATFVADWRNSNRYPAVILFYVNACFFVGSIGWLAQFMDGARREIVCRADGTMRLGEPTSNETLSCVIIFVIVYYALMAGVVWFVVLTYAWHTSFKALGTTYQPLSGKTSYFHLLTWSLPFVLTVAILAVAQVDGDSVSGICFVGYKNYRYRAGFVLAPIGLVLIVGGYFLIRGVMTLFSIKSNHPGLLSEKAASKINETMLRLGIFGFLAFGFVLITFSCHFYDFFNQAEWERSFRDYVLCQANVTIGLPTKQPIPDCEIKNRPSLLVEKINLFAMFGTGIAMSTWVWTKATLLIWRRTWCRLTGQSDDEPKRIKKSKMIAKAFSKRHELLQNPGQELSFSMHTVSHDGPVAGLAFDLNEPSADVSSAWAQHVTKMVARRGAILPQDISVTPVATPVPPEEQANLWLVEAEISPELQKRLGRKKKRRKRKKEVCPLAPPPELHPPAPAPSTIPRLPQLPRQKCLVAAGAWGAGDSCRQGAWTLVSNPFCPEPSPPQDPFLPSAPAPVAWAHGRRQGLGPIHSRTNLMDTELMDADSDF

As for `CCS(=O)(=O)N1CCN(c2cc(-c3nc4ccccc4n3C)c(Cl)cn2)CC1` [Example A-27, 2-{5-chloro-2-[4-(ethylsulfonyl)piperazin-1-yl]pyridin-4-yl}-1-methyl-1H-benzimidazole], the concentration for half-maximal inhibition (IC50) in test [1] was determined as 5 nM. Further, in test [2], the inhibition at 0.05 µM came out at 93% and the 50% inhibitory concentration (IC50) was 49 nM.
In the same order, the values of `Cn1c(-c2cc(N3CC[C@H](O)C3)ncc2Cl)nc2ccccc21` [Example A-28, (3S)-1-[5-chloro-4-(1-methyl-1H-benzimidazol-2-yl)pyridin-2-yl]pyrrolidin-3-ol] are 52 nM, 82% and 79 nM.
In the same order, the values of `CC(=O)N1CCN(c2cc(-c3nc4ccccc4n3C)ccn2)CC1` [Example A-29, 2-[2-(4-acetylpiperazin-1-yl)pyridin-4-yl]-1-methyl-1H-benzimidazole] are 110 nM, 78% and 61 nM.
In the same order, the values of `Cn1c(-c2cc(N3CCC(C)(O)CC3)ncc2Cl)nc2ccccc21` [Example A-30, 1-[5-chloro-4-(1-methyl-1H-benzimidazol-2-yl)pyridin-2-yl]-4-methylpiperidin-4-ol] are 11 nM, 96% and 28 nM.
`Cn1c(-c2ccnc(N3CCNCC3)c2)nc2ccccc21` [Example A-31]: the IC50 in test [1] was found to be 128 nM; in test [2] it was 645 nM. Besides, the inhibition at 0.05 µM in test [2] was determined as 54%.
In the same order, the values of `COC(=O)NC1CCN(c2cc(-c3nc4ccccc4n3C)c(Cl)cn2)CC1` [Example A-32, methyl {1-[5-chloro-4-(1-methyl-1H-benzimidazol-2-yl)pyridin-2-yl]piperidin-4-yl}carbamate] are 1 nM, 7 nM and 89%.
In the same order, the values of `Cn1c(-c2cc(N3CCNC(=O)CC3)ncc2Cl)nc2ccccc21` [Example A-33, 1-[5-chloro-4-(1-methyl-1H-benzimidazol-2-yl)pyridin-2-yl]-1,4-diazepan-5-one] are 8 nM, 9 nM and 98%.
In the same order, the values of `Cn1c(-c2cc(N3CCOCC3)ncc2Cl)nc2ccccc21` [Example A-34, 2-(5-chloro-2-morpholin-4-ylpyridin-4-yl)-1-methyl-1H-benzimidazole] are 16 nM, 22 nM and 95%.
As to `Cn1c(-c2cc(N3CCC(NS(C)(=O)=O)CC3)ncc2Cl)nc2cccnc21` [Example A-36, N-{1-[5-chloro-4-(3-methyl-3H-imidazo[4,5-b]pyridin-2-yl)pyridin-2-yl]piperidin-4-yl}methanesulfonamide], the IC50 is 12 nM in test [1] and 23 nM in test [2]. Also, the inhibition at 0.05 µM in test [2] worked out at 93%.
In the same order, the values of `CC(=O)N1CCCN(c2cc(-c3nc4cccnc4n3C)c(Cl)cn2)CC1` [Example A-39, 2-[2-(4-acetyl-1,4-diazepan-1-yl)-5-chloropyridin-4-yl]-3-methyl-3H-imidazo[4,5-b]pyridine] are 30 nM, 45 nM and 92%.
In the same order, the values of `Cn1c(-c2cc(N3CC(NS(C)(=O)=O)C3)ncc2Cl)nc2ccccc21` [Example A-41, N-{1-[5-chloro-4-(1-methyl-1H-benzimidazol-2-yl)pyridin-2-yl]azetidin-3-yl}methanesulfonamide] are 4 nM, 7 nM and 98%.
In the same order, the values of `CC(=O)NC1CCN(c2cc(-c3nc4ccccc4n3C)c(Cl)cn2)C1` (stereo not drawn) [Example A-42, N-{1-[5-chloro-4-(1-methyl-1H-benzimidazol-2-yl)pyridin-2-yl]pyrrolidin-3-yl}acetamide] are 92 nM, 131 nM and 72%.
Compound `CC(=O)NC1CN(c2cc(-c3nc4ccccc4n3C)c(Cl)cn2)C1` [Example A-43, N-{1-[5-chloro-4-(1-methyl-1H-benzimidazol-2-yl)pyridin-2-yl]azetidin-3-yl}acetamide] had an IC50 in test [1] of 92 nM. In test [2], the inhibition at 0.05 µM worked out at 86% and the IC50 stood at 190 nM.
Turning to `COC(=O)NC1CN(c2cc(-c3nc4ccccc4n3C)c(Cl)cn2)C1` [Example A-44], in test [1], the midpoint of inhibition, the IC50, lay at 22 nM. Besides, in test [2], the inhibition at 0.05 µM was determined as 89% and the IC50 was determined as 59 nM.
In test [1], `Cc1noc(CC2CN(c3cc(-c4nc5ccccc5n4C)c(Cl)cn3)CCO2)n1` (stereo not drawn) [Example A-45, 2-(5-chloro-2-{2-[(3-methyl-1,2,4-oxadiazol-5-yl)methyl]morpholin-4-yl}pyridin-4-yl)-1-methyl-1H-benzimidazole] showed a half-inhibitory concentration (IC50) of 9 nM. Moreover, in test [2], the inhibition at 0.05 µM is 102% and the IC50 is 13 nM.
In the same order, the values of `Cn1c(-c2cc(N3CCOCC(Cc4cncnc4)C3)ncc2Cl)nc2ccccc21` (stereo not drawn) [Example A-46, 2-{5-chloro-2-[6-(pyrimidin-5-ylmethyl)-1,4-oxazepan-4-yl]pyridin-4-yl}-1-methyl-1H-benzimidazole] are 9 nM, 101% and 14 nM.
In the same order, the values of `Cn1c(-c2cc(N3CCOCC(CO)C3)ncc2Cl)nc2ccccc21` (stereo not drawn) [Example A-47, {4-[5-chloro-4-(1-methyl-1H-benzimidazol-2-yl)pyridin-2-yl]-1,4-oxazepan-6-yl}methanol] are 7 nM, 101% and 9 nM.
In the same order, the values of `COCc1nc(C2CCN(c3cc(-c4nc5ccccc5n4C)c(Cl)cn3)CC2)no1` [Example A-49, 2-(5-chloro-2-{4-[5-(methoxymethyl)-1,2,4-oxadiazol-3-yl]piperidin-1-yl}pyridin-4-yl)-1-methyl-1H-benzimidazole] are 7 nM, 100% and 11 nM.
Take `CC(=O)N1CCCN(c2cc(-c3nc4ccccc4n3C)c(Cl)cn2)CC1` [Example A-50, 2-[2-(4-acetyl-1,4-diazepan-1-yl)-5-chloropyridin-4-yl]-1-methyl-1H-benzimidazole]: the IC50 in test [1] turned out to be 4 nM. Further, in test [2], the inhibition at 0.05 µM stood at 100% and the IC50 turned out to be 7 nM.
In turn, `Cn1c(-c2cc(N3CCC(CS(C)(=O)=O)CC3)ncc2Cl)nc2ccccc21` [Example A-51, 2-(5-chloro-2-{4-[(methylsulfonyl)methyl]piperidin-1-yl}pyridin-4-yl)-1-methyl-1H-benzimidazole] had an IC50 in test [1] of 7 nM. Further, in test [2], the inhibition at 0.05 µM came to 99% and the IC50 stood at 6 nM.
In the same order, the values of `Cc1nc(CC2CN(c3cc(-c4nc5ccccc5n4C)c(Cl)cn3)CCO2)no1` (stereo not drawn) [Example A-52, 2-(5-chloro-2-{2-[(5-methyl-1,2,4-oxadiazol-3-yl)methyl]morpholin-4-yl}pyridin-4-yl)-1-methyl-1H-benzimidazole] are 13 nM, 99% and 13 nM.
In the same order, the values of `Cn1c(-c2cc(N3CCOCC(O)C3)ncc2Cl)nc2ccccc21` (stereo not drawn) [Example A-53, 4-[5-chloro-4-(1-methyl-1H-benzimidazol-2-yl)pyridin-2-yl]-1,4-oxazepan-6-yl] are 9 nM, 98% and 12 nM.
In the same order, the values of `Cn1c(-c2cc(N3CCN(C(=O)c4ncn[nH]4)CC3)ncc2Cl)nc2ccccc21` [Example A-56, 2-{5-chloro-2-[4-(1H-1,2,4-triazol-3-ylcarbonyl)piperazin-1-yl]pyridin-4-yl}-1-methyl-1H-benzimidazole] are 9 nM, 98% and 21 nM.
For `Cn1c(-c2cc(N3CCC4(CCCC(=O)N4)CC3)ncc2Cl)nc2ccccc21` [Example A-57, 9-[5-chloro-4-(1-methyl-1H-benzimidazol-2-yl)pyridin-2-yl]-1,9-diazaspiro[5.5]undecan-2-one], the IC50 in test [1] was 7 nM. Also, in test [2], the inhibition at 0.05 µM came out at 97% and the IC50 was 20 nM.
In the same order, the values of `CC(=O)N1CCC(N(C)c2cc(-c3nc4ccccc4n3C)c(Cl)cn2)CC1` [Example A-58, N-(1-acetylpiperidin-4-yl)-5-chloro-N-methyl-4-(1-methyl-1H-benzimidazol-2-yl)pyridin-2-amine] are 31 nM, 97% and 15 nM.
In the same order, the values of `Cn1c(-c2cc(N3CCC(OCC(=O)NC4CC4)CC3)ncc2Cl)nc2ccccc21` [Example A-59, 2-({1-[5-chloro-4-(1-methyl-1H-benzimidazol-2-yl)pyridin-2-yl]piperidin-4-yl}oxy)-N-cyclopropylacetamide] are 3 nM, 96% and 12 nM.
